According to ChEMBL document CHEMBL6083208, “Integrating amino acids into Bcr-Abl inhibitors: design, synthesis, biological evaluation, and in silico studies” (RSC Med Chem, 2024):
Calls of active or inactive are those of the source. The calls are words filed in the database; no cut-off is given here.

Assays:
K562 [1] = assay: Induction of apoptosis in human K562 cells assessed as early apoptotic cells at 10 uM measured after 48 hrs by annexin-V/FITC and propidium iodide double staining based flow cytometry analysis (reference value: 1.96%); type: functional
[2] = target: T1, Bcr/Abl fusion protein (Homo sapiens) (UniProt P00519+P11274); assay: Inhibition of wild type BCR-ABL in human K562 cells assessed as inhibition of STAT5 phosphorylation level at 20 uM measured after 48 hrs by Western blot analysis; type: cell-based
T1 sequence (P00519 whole entry, looked up, the tested form may be a part): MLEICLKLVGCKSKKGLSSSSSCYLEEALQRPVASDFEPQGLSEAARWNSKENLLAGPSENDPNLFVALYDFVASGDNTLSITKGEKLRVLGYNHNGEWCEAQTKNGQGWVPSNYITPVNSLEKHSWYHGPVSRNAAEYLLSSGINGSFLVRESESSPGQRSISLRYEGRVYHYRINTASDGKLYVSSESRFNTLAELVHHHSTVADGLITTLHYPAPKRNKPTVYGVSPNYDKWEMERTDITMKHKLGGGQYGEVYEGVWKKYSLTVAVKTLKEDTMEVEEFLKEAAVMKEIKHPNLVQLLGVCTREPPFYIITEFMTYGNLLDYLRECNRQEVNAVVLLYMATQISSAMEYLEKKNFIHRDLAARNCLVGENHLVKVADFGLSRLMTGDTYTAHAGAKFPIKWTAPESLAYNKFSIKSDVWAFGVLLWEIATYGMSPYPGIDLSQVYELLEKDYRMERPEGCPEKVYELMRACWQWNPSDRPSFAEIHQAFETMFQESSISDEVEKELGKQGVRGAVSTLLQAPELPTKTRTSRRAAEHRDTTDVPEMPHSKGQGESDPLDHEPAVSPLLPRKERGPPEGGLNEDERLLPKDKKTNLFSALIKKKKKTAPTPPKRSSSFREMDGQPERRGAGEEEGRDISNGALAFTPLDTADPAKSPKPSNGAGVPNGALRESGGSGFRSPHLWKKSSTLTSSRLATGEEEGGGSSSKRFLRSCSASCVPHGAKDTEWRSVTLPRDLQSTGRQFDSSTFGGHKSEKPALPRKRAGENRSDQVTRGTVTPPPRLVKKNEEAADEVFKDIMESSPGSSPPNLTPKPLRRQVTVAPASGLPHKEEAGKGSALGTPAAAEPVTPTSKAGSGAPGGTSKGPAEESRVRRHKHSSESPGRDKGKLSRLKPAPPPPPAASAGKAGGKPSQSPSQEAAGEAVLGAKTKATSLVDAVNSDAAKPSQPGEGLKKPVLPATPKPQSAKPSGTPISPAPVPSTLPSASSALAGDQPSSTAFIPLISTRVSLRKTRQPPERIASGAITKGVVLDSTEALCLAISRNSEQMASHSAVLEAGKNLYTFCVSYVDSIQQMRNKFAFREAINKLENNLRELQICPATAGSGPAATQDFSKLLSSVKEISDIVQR
T1 sequence (P11274 whole entry, looked up, the tested form may be a part): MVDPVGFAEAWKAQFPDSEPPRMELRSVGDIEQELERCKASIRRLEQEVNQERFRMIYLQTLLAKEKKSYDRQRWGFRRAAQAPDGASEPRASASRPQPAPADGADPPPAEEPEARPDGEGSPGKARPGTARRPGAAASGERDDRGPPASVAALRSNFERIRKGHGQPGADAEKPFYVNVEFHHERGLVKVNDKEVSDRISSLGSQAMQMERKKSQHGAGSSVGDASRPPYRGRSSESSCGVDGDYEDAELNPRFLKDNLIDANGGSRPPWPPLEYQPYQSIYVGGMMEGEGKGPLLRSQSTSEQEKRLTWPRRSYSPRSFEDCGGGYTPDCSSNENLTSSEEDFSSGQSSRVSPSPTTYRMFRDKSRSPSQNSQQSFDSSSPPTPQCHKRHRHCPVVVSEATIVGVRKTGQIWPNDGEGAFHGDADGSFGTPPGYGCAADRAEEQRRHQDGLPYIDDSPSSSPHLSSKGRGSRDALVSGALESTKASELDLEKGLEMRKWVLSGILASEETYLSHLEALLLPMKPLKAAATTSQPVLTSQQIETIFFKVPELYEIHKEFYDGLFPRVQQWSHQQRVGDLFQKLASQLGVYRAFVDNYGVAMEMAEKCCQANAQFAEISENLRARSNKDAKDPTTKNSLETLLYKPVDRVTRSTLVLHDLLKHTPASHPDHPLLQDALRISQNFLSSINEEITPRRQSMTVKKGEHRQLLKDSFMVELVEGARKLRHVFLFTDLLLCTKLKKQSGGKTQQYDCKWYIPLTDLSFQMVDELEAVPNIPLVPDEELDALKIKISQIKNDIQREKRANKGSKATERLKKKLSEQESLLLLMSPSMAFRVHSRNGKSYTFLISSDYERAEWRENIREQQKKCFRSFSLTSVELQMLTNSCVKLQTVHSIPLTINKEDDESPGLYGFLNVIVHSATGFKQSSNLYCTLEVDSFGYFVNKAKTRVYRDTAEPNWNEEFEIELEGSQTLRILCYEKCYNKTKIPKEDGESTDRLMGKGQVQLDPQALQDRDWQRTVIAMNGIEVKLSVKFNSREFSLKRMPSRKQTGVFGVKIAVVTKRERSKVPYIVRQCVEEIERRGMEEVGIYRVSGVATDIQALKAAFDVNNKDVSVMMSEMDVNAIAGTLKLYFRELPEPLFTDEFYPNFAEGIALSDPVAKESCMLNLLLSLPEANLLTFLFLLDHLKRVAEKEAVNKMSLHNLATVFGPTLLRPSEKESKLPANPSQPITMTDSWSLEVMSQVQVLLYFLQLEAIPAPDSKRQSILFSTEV

[3] = Inhibition of Bcr-Abl T315Ialpha mutant (unknown origin) using Abltide as substrate incubated for 1 hr by luminescence based ADP-glo assay; design: species or system Homo sapiens
[4] = target: T1, Bcr/Abl fusion protein (Homo sapiens); assay: Inhibition of wild type BCR-ABL in human K562 cells assessed as inhibition of Bcr-Abl phosphorylation level at high concentration measured after 48 hrs by Western blot analysis; type: cell-based
Bcr/Abl fusion protein = Bcr/Abl fusion protein (Homo sapiens, UniProt P00519); assay: Inhibition of wild type Bcr-Abl (unknown origin) using Abltide as substrate incubated for 1 hr by luminescence based ADP-glo assay; type: protein assay
Chain of Bcr/Abl fusion protein (P00519 whole entry, the tested form may be a part): as the sequence (P00519 whole entry, looked up, the tested form may be a part) above
Chain of Bcr/Abl fusion protein (P11274 whole entry, further chain, the tested form may be a part): as the sequence (P11274 whole entry, looked up, the tested form may be a part) above

K562 [5] = assay: Induction of apoptosis in human K562 cells assessed as viable cells at 1 uM measured after 48 hrs by annexin-V/FITC and propidium iodide double staining based flow cytometry analysis (reference value: 85.73%); type: functional; settings: read-out: Activity
K562 [6] = assay: cells; settings: Homo sapiens, K562, 48 h
[7] = target: T1, Bcr/Abl fusion protein (Homo sapiens); assay: Inhibition of wild type BCR-ABL in human K562 cells assessed as inhibition of STAT5 phosphorylation level at high concentration measured after 48 hrs by Western blot analysis; type: cell-based
K562 [8] = assay: Induction of apoptosis in human K562 cells assessed as late apoptotic cells at 1 uM measured after 48 hrs by annexin-V/FITC and propidium iodide double staining based flow cytometry analysis (reference value: 12.03%); type: functional
K562 [9] = assay: Induction of apoptosis in human K562 cells assessed as necrotic cells at 1 uM measured after 48 hrs by annexin-V/FITC and propidium iodide double staining based flow cytometry analysis (reference value: 0.27%); type: functional
THP-1 = assay: Antiproliferative activity against human THP-1 cells after 48 hrs by MTT assay; type: functional; design: concentration or dose not given beside the values
K562 [10] = assay: Induction of apoptosis in human K562 cells assessed as late apoptotic cells at 15 uM measured after 48 hrs by annexin-V/FITC and propidium iodide double staining based flow cytometry analysis (reference value: 12.03%); type: functional
K562 [11] = assay: Induction of cell cycle arrest in human K562 cells assessed as reduction in accumulation of cells at S phase at 1 to 15 uM measured after 48 hrs by PI staining based flow cytometry analysis; type: functional; settings: dose 1-15 µM
K562 [12] = assay: Induction of apoptosis in human K562 cells assessed as viable cells at 10 uM measured after 48 hrs by annexin-V/FITC and propidium iodide double staining based flow cytometry analysis (reference value: 85.73%); type: functional; settings: read-out: Activity
[13] = target: T1, Bcr/Abl fusion protein (Homo sapiens); assay: Inhibition of wild type BCR-ABL in human K562 cells assessed as inhibition of Bcr-Abl phosphorylation level at 20 uM measured after 48 hrs by Western blot analysis; type: cell-based
K562 [14] = assay: Induction of apoptosis in human K562 cells assessed as viable cells at 15 uM measured after 48 hrs by annexin-V/FITC and propidium iodide double staining based flow cytometry analysis (reference value: 85.73%); type: functional; settings: read-out: Activity
K562 [15] = assay: Induction of apoptosis in human K562 cells assessed as early apoptotic cells at 15 uM measured after 48 hrs by annexin-V/FITC and propidium iodide double staining based flow cytometry analysis (reference value: 1.96%); type: functional
BaF3 [16] = assay: Antiproliferative activity against mouse BaF3 cells harbouring Bcr-Abl T315I assessed of cell viability at 2 uM incubated for 72 hrs by Celltiter-glo luminescent cell viability assay relative to control; type: functional
K562 [17] = assay: Induction of apoptosis in human K562 cells assessed as necrotic cells at 15 uM measured after 48 hrs by annexin-V/FITC and propidium iodide double staining based flow cytometry analysis (reference value: 0.27%); type: functional
HEK293 = assay: Antiproliferative activity against HEK293 cells after 48 hrs by MTT assay; type: toxicity, cell-based; design: concentration or dose not given beside the values; settings: human, hek293, 48 h
K562 [18] = assay: Induction of apoptosis in human K562 cells assessed as necrotic cells at 10 uM measured after 48 hrs by annexin-V/FITC and propidium iodide double staining based flow cytometry analysis (reference value: 0.27%); type: functional
K562 [19] = assay: Induction of apoptosis in human K562 cells assessed as late apoptotic cells at 10 uM measured after 48 hrs by annexin-V/FITC and propidium iodide double staining based flow cytometry analysis (reference value: 12.03%); type: functional
K562 [20] = assay: Induction of apoptosis in human K562 cells assessed as early apoptotic cells at 1 uM measured after 48 hrs by annexin-V/FITC and propidium iodide double staining based flow cytometry analysis (reference value: 1.96%); type: functional
BaF3 [21] = assay: Antiproliferative activity against mouse BaF3 cells harbouring Bcr-Abl T315I assessed of cell viability at 10 uM incubated for 72 hrs by Celltiter-glo luminescent cell viability assay relative to control; type: functional
BaF3 [22] = assay: Antiproliferative activity against mouse BaF3 cells harbouring Bcr-Abl T315I assessed of cell viability at 30 uM incubated for 72 hrs by Celltiter-glo luminescent cell viability assay relative to control; type: functional
K562 [23] = assay: Induction of cell cycle arrest in human K562 cells assessed as increase in accumulation of cells at G0/G1 phase at 1 to 15 uM measured after 48 hrs by PI staining based flow cytometry analysis; type: functional; settings: dose 1-15 µM
K562 [24] = assay: cells; settings: Homo sapiens, K562, 48 h, read-out: Activity
K562 [25] = assay: cells; settings: Homo sapiens, K562, 48 h, read-out: Activity; remark: listed apart in the source
K562 [26] = assay: cells; settings: Homo sapiens, K562, 48 h, read-out: Activity; remark: listed apart in the source
K562 [27] = assay: Induction of apoptosis in human K562 cells assessed as necrotic cells at 10 uM measured after 48 hrs by annexin-V/FITC and propidium iodide double staining based flow cytometry analysis (reference value: 0.03%); type: functional
K562 [28] = assay: Induction of apoptosis in human K562 cells assessed as late apoptotic cells at 10 uM measured after 48 hrs by annexin-V/FITC and propidium iodide double staining based flow cytometry analysis (reference value: 10.34%); type: functional
K562 [29] = assay: Induction of apoptosis in human K562 cells assessed as early apoptotic cells at 1 uM measured after 48 hrs by annexin-V/FITC and propidium iodide double staining based flow cytometry analysis (reference value: 2.16%); type: functional
K562 [30] = assay: Induction of apoptosis in human K562 cells assessed as viable cells at 10 uM measured after 48 hrs by annexin-V/FITC and propidium iodide double staining based flow cytometry analysis (reference value: 87.47%); type: functional; settings: read-out: Activity
K562 [31] = assay: Induction of apoptosis in human K562 cells assessed as early apoptotic cells at 10 uM measured after 48 hrs by annexin-V/FITC and propidium iodide double staining based flow cytometry analysis (reference value: 2.16%); type: functional
K562 [32] = assay: Induction of apoptosis in human K562 cells assessed as viable cells at 20 uM measured after 48 hrs by annexin-V/FITC and propidium iodide double staining based flow cytometry analysis (reference value: 87.47%); type: functional; settings: read-out: Activity
K562 [33] = assay: Induction of apoptosis in human K562 cells assessed as late apoptotic cells at 20 uM measured after 48 hrs by annexin-V/FITC and propidium iodide double staining based flow cytometry analysis (reference value: 10.34%); type: functional
K562 [34] = assay: Induction of cell cycle arrest in human K562 cells assessed as increase in accumulation of cells at G0/G1 phase measured after 48 hrs by PI staining based flow cytometry analysis; type: functional; settings: dose 1-20 µM
K562 [35] = assay: Induction of apoptosis in human K562 cells assessed as necrotic cells at 20 uM measured after 48 hrs by annexin-V/FITC and propidium iodide double staining based flow cytometry analysis (reference value: 0.03%); type: functional
K562 [36] = assay: Induction of apoptosis in human K562 cells assessed as late apoptotic cells at 1 uM measured after 48 hrs by annexin-V/FITC and propidium iodide double staining based flow cytometry analysis (reference value: 10.34%); type: functional
K562 [37] = assay: Induction of apoptosis in human K562 cells assessed as viable cells at 1 uM measured after 48 hrs by annexin-V/FITC and propidium iodide staining double based flow cytometry analysis (reference value: 87.47%); type: functional; settings: read-out: Activity
K562 [38] = assay: Induction of apoptosis in human K562 cells assessed as early apoptotic cells at 20 uM measured after 48 hrs by annexin-V/FITC and propidium iodide double staining based flow cytometry analysis (reference value: 2.16%); type: functional
K562 [39] = assay: Induction of apoptosis in human K562 cells assessed as necrotic cells at 1 uM measured after 48 hrs by annexin-V/FITC and propidium iodide double staining based flow cytometry analysis (reference value: 0.03%); type: functional

Which results are given for CC(C)(C)C(=O)Nc1cc(-c2ccc(C(=O)N[C@@H](CO)C(=O)Nc3ccc(Cl)c(C(F)(F)F)c3)cc2)ccn1?
Activity (K562 [1]): 2.83%; inhibition [2]: Active; IC50 [3]: 122 nM; inhibition [4]: Active; IC50 (Bcr/Abl fusion protein): 5.01 nM; viability at 1 µM (K562 [5]): 76.5%; IC50 (K562 [6]): 2.04 nM; inhibition [7]: Active; Activity (K562 [8]): 16.63%; Activity (K562 [9]): 1.75%; Activity (THP-1): 54%; Activity (K562 [10]): 24.21%; Activity (K562 [11]): inactive; viability at 10 µM (K562 [12]): 74.4%; inhibition [13]: Active; viability at 15 µM (K562 [14]): 69.6%; Activity (K562 [15]): 2.21%; inhibition at 2 µM (BaF3 [16]): 0.2%; Activity (K562 [17]): 3.98%; Activity (HEK293): 87%; Activity (K562 [18]): 1.39%; Activity (K562 [19]): 21.34%; Activity (K562 [20]): 5.12%; inhibition at 10 µM (BaF3 [21]): 99.9%; inhibition at 30 µM (BaF3 [22]): 99.2%; Activity (K562 [23]): inactive

With Cc1ccc(NC(=O)c2ccc(CN3CCN(C)CC3)cc2)cc1Nc1nccc(-c2cccnc2)n1 [IMATINIB] as the compound, how does the viability at 10 µM (K562 [24]) read?
The viability at 10 µM was 67.4%.

What about the IC50 (K562 [6]) of the same compound?
The IC50 was 2.03 nM.

What about the viability at 5 µM (K562 [25]) of the same compound?
The viability at 5 µM was 74.3%.

What about the Activity (THP-1) of the same compound?
Its Activity is 100%.

What about the Activity (HEK293) of the same compound?
Its Activity is 87%.

And the viability at 1 µM (K562 [26])?
Its viability at 1 µM is 72.9%.

Which Activity (K562 [27]) does the source give for CC(=O)Nc1cc(-c2ccc(C(=O)N[C@@H](COC(C)(C)C)C(=O)Nc3ccc(Cl)c(C(F)(F)F)c3)cc2)ccn1 here?
The Activity was 0.07%.

What about the inhibition [2] of the same compound?
Its inhibition is “Active”.

And the IC50 [3]?
The IC50 was 37.5 nM.

What about the Activity (K562 [28]) of the same compound?
The Activity was 38.85%.

What about the inhibition [4] of the same compound?
Its inhibition is “Active”.

What about the Activity (K562 [29]) of the same compound?
The Activity was 1.37%.

And the IC50 (Bcr/Abl fusion protein)?
Its IC50 is 0.231 nM.

What about the IC50 (K562 [6]) of the same compound?
The IC50 was 0.06 nM.

What about the inhibition [7] of the same compound?
The inhibition was “Active”.

What about the viability at 10 µM (K562 [30]) of the same compound?
Its viability at 10 µM is 59.4%.

What about the Activity (K562 [31]) of the same compound?
The Activity was 1.64%.

What about the viability at 20 µM (K562 [32]) of the same compound?
The viability at 20 µM was 31.8%.

What about the Activity (K562 [33]) of the same compound?
Its Activity is 66.61%.

What about the Activity (K562 [34]) of the same compound?
The Activity was “Dose-dependent-effect”.

What about the Activity (THP-1) of the same compound?
Its Activity is 66%.

And the Activity (K562 [35])?
The Activity was 0.07%.

And the Activity (K562 [36])?
Its Activity is 24.67%.

And the inhibition [13]?
Its inhibition is “Active”.

What about the inhibition at 2 µM (BaF3 [16]) of the same compound?
Its inhibition at 2 µM is 7.66%.

And the viability at 1 µM (K562 [37])?
The viability at 1 µM was 73.9%.

What about the Activity (HEK293) of the same compound?
The Activity was 95%.

What about the Activity (K562 [38]) of the same compound?
The Activity was 1.52%.

What about the Activity (K562 [39]) of the same compound?
The Activity was 0.07%.

What about the inhibition at 10 µM (BaF3 [21]) of the same compound?
Its inhibition at 10 µM is 64.1%.

And the inhibition at 30 µM (BaF3 [22])?
The inhibition at 30 µM was 98.1%.
